The source of these data is US11312724B2 (ASCENTAGE PHARMA (SUZHOU) CO., LTD., priority 2021, dated 2022).

One test deals with NCI-H358 cell. Description: Cell proliferation assay (Celltiter-Glo), NCI-H358. Type of test: cell-based. Conditions: Homo sapiens, NCI-H358, 72 h, 3 days. As to the method:
(§1) Cell Proliferation Assay:
(§2) NCI-H358 cell and MIA PaCa-2 cell was cultured in RPMI-1640 supplemented with 10% FBS in humidified incubator at 37° C., 5% CO2. To asses the effect of Compounds of the Disclosure on cell proliferation, exponentially growing cells (5000 cells/well) were plated onto 96-well plates. After cell seeding, a representative Compounds of the Disclosure were added to the cell media (in concentrations ranging from 0 to 10 μM, 3/dilution series). After 3 days, 30 μL Celltiter-Glo reagent was added, and the luminescent signal was determined according to supplier's instruction. The dose response curves and IC50 values were generated using Prism.
A general note: In ATP-based viability assays light output follows the ATP content of the culture.

The next test relates to MIA PaCa-2 cell. Description: Cell proliferation assay (Celltiter-Glo), MIA PaCa-2. It is filed as cell-based. Particulars: Homo sapiens, MIA PaCa-2, 72 h, 3 days. The procedure:
as §1, §2

Broadly, the IC50 is the midpoint of a concentration-inhibition curve.

`C=CC(=O)N1CCN(c2nc(OC[C@@H]3CCCN3C)nc3c2CCC2(COC(C)c4c(F)cccc42)C3)C[C@@H]1CC#N` (stereo partly drawn) [Cpd. No. 35, 2-((2S)-1-acryloyl-4-(8-fluoro-1-methyl-2′-(((S)-1-methylpyrrolidin-2-yl)methoxy)-5′,8′-dihydro-6′H-spiro[isochromane-4,7′-quinazolin]-4′-yl)piperazin-2-yl)acetonitrile]: the half-maximal inhibitory concentration (IC50) in the test with NCI-H358 cell came to 43 nM; with MIA PaCa-2 cell, 20 nM.
For the compound `C=CC(=O)N1CCN(c2nc(OC[C@@H]3CCCN3C)nc3c2CCC2(COC(C)(C)c4ccccc42)C3)C[C@@H]1CC#N` (stereo partly drawn) [Cpd. No. 34, 2-((2S)-1-acryloyl-4-(1,1-dimethyl-2′-(((S)-1-methylpyrrolidin-2-yl)methoxy)-5′,8′-dihydro-6′H-spiro[isochromane-4,7′-quinazolin]-4′-yl)piperazin-2-yl)acetonitrile], the 50% inhibitory concentration (IC50) in the test on NCI-H358 cell was found to be 1350 nM; in the test with MIA PaCa-2 cell, 750 nM.
The corresponding values for `C=CC(=O)N1CCN(c2nc(OC[C@@H]3CCCN3C)nc3c2CCC2(COCc4cccc(F)c42)C3)C[C@@H]1CC#N` (stereo partly drawn) [Cpd. No. 27, 2-((2S)-1-acryloyl-4-(5-fluoro-2′-(((S)-1-methylpyrrolidin-2-yl)methoxy)-5′,8′-dihydro-6′H-spiro[isochromane-4,7′-quinazolin]-4′-yl)piperazin-2-yl)acetonitrile] are 55 nM and 19 nM.
For `C=CC(=O)N1CCN(c2nc(OC[C@@H]3CCCN3C)nc3c2CCC2(CCOc4c(Cl)cc(Cl)cc42)C3)C[C@@H]1CC#N` (stereo partly drawn) [Cpd. No. 23, 2-((2S)-1-acryloyl-4-(6,8-dichloro-2′-(((S)-1-methylpyrrolidin-2-yl)methoxy)-5′,8′-dihydro-6′H-spiro[chromane-4,7′-quinazolin]-4′-yl)piperazin-2-yl)acetonitrile], in that order: 1240 nM and 740 nM.
The corresponding values for `C=CC(=O)N1CCN(c2nc(OC[C@@H]3CCCN3C)nc3c2CCC2(COCc4ccccc42)C3)C[C@@H]1CC#N` (stereo partly drawn) [Cpd. No. 24, 2-((2S)-1-acryloyl-4-(2′-(((S)-1-methylpyrrolidin-2-yl)methoxy)-5′,8′-dihydro-6′H-spiro[isochromane-4,7′-quinazolin]-4′-yl)piperazin-2-yl)acetonitrile] are 11 nM and 6 nM.
In the case of `C=CC(=O)N1CCN(c2nc(OC[C@@H]3CCCN3C)nc3c2CCC2(COCc4c(F)cccc42)C3)C[C@@H]1CC#N` (stereo partly drawn) [compound 26], the IC50 was 2.2 nM in the test with NCI-H358 cell and 1.8 nM in the test with MIA PaCa-2 cell.
For `C=CC(=O)N1CCN(c2nc(OC[C@@H]3CCCN3C)nc3c2CCC2(CCCc4ccc(F)cc42)C3)C[C@@H]1CC#N` (stereo partly drawn) [Cpd. No. 11, 2-((2S)-1-acryloyl-4-(7-fluoro-2′-(((S)-1-methylpyrrolidin-2-yl)methoxy)-3,4,5′,8′-tetrahydro-2H,6′H-spiro[naphthalene-1,7′-quinazolin]-4′-yl)piperazin-2-yl)acetonitrile], in that order: 200 nM and 110 nM.
For `C=CC(=O)N1CCN(c2nc(OC[C@@H]3CCCN3C)nc3c2CCC2(COC(C)c4ccccc42)C3)C[C@@H]1CC#N` (stereo partly drawn) [Cpd. No. 32, 2-((2S)-1-acryloyl-4-(1-methyl-2′-(((S)-1-methylpyrrolidin-2-yl)methoxy)-5′,8′-dihydro-6′H-spiro[isochromane-4,7′-quinazolin]-4′-yl)piperazin-2-yl)acetonitrile], in that order: 83 nM and 22 nM.
The corresponding values for `C=CC(=O)N1CCN(c2nc(OC[C@@H]3CCCN3C)nc3c2CCC2(CCCc4ccccc42)C3)[C@@H](C)C1` (stereo partly drawn) [Cpd. No. 8, 1-((3S)-3-methyl-4-(2′-(((S)-1-methylpyrrolidin-2-yl)methoxy)-3,4,5′,8′-tetrahydro-2H,6′H-spiro[naphthalene-1,7′-quinazolin]-4′-yl)piperazin-1-yl)prop-2-en-1-one] are 940 nM and 500 nM.
`C=CC(=O)N1CCN(c2nc(OC[C@@H]3CCCN3C)nc3c2CC[C@@]2(CCCc4ccccc42)C3)C[C@@H]1CC#N` (single isomer, unassigned) [Cpd. No. 2]: the IC50 is 440 nM in the test on NCI-H358 cell and 76 nM in the test with MIA PaCa-2 cell.
For the compound `C=CC(=O)N1CCN(c2nc(OCC3CCCN3C)nc3c2CC[C@]2(CCc4ccccc42)C3)C[C@@H]1CC#N` (single isomer, unassigned) [Cpd. No. 4], the IC50 in the test on NCI-H358 cell came to 13 nM; with MIA PaCa-2 cell, 5 nM.
For `C=CC(=O)N1CCN(c2nc(OC[C@@H]3[C@@H]4C[C@@H]4CN3C)nc3c2CC[C@@]2(CCc4c(Cl)cccc42)C3)C[C@@H]1CC#N` (single isomer, unassigned) [Cpd. No. 47], in that order: 15 nM and 4.9 nM.
The corresponding values for `C=CC(=O)N1CCN(c2nc(OCC34CCCN3CCC4)nc3c2CC[C@@]2(CCc4c(Cl)cccc42)C3)C[C@@H]1CC#N` [Cpd. No. 44, 2-((S)-1-acryloyl-4-((R)-4-chloro-2′-((tetrahydro-1H-pyrrolizin-7a(5H)-yl)methoxy)-2,3,5′,8′-tetrahydro-6′H-spiro[indene-1,7′-quinazolin]-4′-yl)piperazin-2-yl)acetonitrile] are 4.6 nM and 1.5 nM.
For `C=CC(=O)N1CCN(c2nc(OC[C@@H]3CCCN3C)nc3c2CCC2(CCc4ccc(C)cc42)C3)C[C@@H]1CC#N` (stereo partly drawn) [Cpd. No. 12, 2-((2S)-1-acryloyl-4-(6-methyl-2′-(((S)-1-methylpyrrolidin-2-yl)methoxy)-2,3,5′,8′-tetrahydro-6′H-spiro[indene-1,7′-quinazolin]-4′-yl)piperazin-2-yl)acetonitrile], in that order: 65 nM and 55 nM.
For `C=CC(=O)N1CCN(c2nc(OCC3CCCN3C)nc3c2CC[C@@]2(CCc4ccccc42)C3)C[C@@H]1CC#N` (single isomer, unassigned) [Cpd. No. 5], the IC50 in the test on NCI-H358 cell came out at 520 nM; in the test on MIA PaCa-2 cell, 400 nM.
For `C=C(F)C(=O)N1CCN(c2nc(OC[C@@H]3CCCN3C)nc3c2CC[C@@]2(CCc4c(Cl)cccc42)C3)C[C@@H]1CC#N` [Cpd. No. 54, 2-((S)-4-((R)-4-chloro-2′-(((S)-1-methylpyrrolidin-2-yl)methoxy)-2,3,5′,8′-tetrahydro-6′H-spiro[indene-1,7′-quinazolin]-4′-yl)-1-(2-fluoroacryloyl)piperazin-2-yl)acetonitrile], in that order: 28 nM and 16 nM.
The corresponding values for `C=CC(=O)N1CCN(c2nc(OC[C@@H]3CCCN3C)nc3c2CC[C@]2(CCCc4ccccc42)C3)C[C@@H]1CC#N` (single isomer, unassigned) [Cpd. No. 1] are 16 nM and 3.6 nM.
The corresponding values for `C=CC(=O)N1CCN(c2nc(OC[C@@H]3CCCCN3C)nc3c2CCC2(CCCc4ccccc42)C3)C[C@@H]1CC#N` (stereo partly drawn) [Cpd. No. 18, 2-((2S)-1-acryloyl-4-(2′-(((S)-1-methylpiperidin-2-yl)methoxy)-3,4,5′,8′-tetrahydro-2H,6′H-spiro[naphthalene-1,7′-quinazolin]-4′-yl)piperazin-2-yl)acetonitrile] are 160 nM and 110 nM.
Regarding `C=CC(=O)N1CCN(c2nc(OC[C@@H]3CCCN3C)nc3c2CCC2(CCCc4ccccc42)C3)CC1` (stereo partly drawn) [Cpd. No. 7, 1-(4-(2′-(((S)-1-methylpyrrolidin-2-yl)methoxy)-3,4,5′,8′-tetrahydro-2H,6′H-spiro[naphthalene-1,7′-quinazolin]-4′-yl)piperazin-1-yl)prop-2-en-1-one], the IC50 in the test on NCI-H358 cell came to 1390 nM; in the test on MIA PaCa-2 cell, 850 nM.
The corresponding values for `C=C(COC)C(=O)N1CCN(c2nc(OC[C@@H]3CCCN3C)nc3c2CCC2(CCc4ccccc42)C3)C[C@@H]1CC#N` (stereo partly drawn) [Cpd. No. 42, 2-((2S)-1-(2-(methoxymethyl)acryloyl)-4-(2′-(((S)-1-methylpyrrolidin-2-yl)methoxy)-2,3,5′,8′-tetrahydro-6′H-spiro[indene-1,7′-quinazolin]-4′-yl)piperazin-2-yl)acetonitrile] are 10400 nM and 5800 nM.
The corresponding values for `C=CC(=O)N1CCN(c2nc(OC[C@@H]3CCCN3C)nc3c2CCC2(COC(C(F)(F)F)c4ccccc42)C3)C[C@@H]1CC#N` (stereo partly drawn) [Cpd. No. 33, 2-((2S)-1-acryloyl-4-(2′-(((S)-1-methylpyrrolidin-2-yl)methoxy)-1-(trifluoromethyl)-5′,8′-dihydro-6′H-spiro[isochromane-4,7′-quinazolin]-4′-yl)piperazin-2-yl)acetonitrile] are 45 nM and 30 nM.
The corresponding values for `C=CC(=O)N1CCN(c2nc(OC[C@@H]3CCCN3C)nc3c2CCC2(C3)CC(C)Oc3ccccc32)C[C@@H]1CC#N` (stereo partly drawn) [Cpd. No. 25, 2-((2S)-1-acryloyl-4-(2-methyl-2′-(((S)-1-methylpyrrolidin-2-yl)methoxy)-5′,8′-dihydro-6′H-spiro[chromane-4,7′-quinazolin]-4′-yl)piperazin-2-yl)acetonitrile] are 1840 nM and 1280 nM.
As to `C=CC(=O)N1CCN(c2nc(OC[C@@H]3CCCN3C)nc3c2CCC2(C3)OCCc3ccccc32)C[C@@H]1CC#N` (stereo partly drawn) [Cpd. No. 6, 2-((2S)-1-acryloyl-4-(2′-(((S)-1-methylpyrrolidin-2-yl)methoxy)-5′,8′-dihydro-6′H-spiro[isochromane-1,7′-quinazolin]-4′-yl)piperazin-2-yl)acetonitrile], the IC50 in the test on NCI-H358 cell amounted to 210 nM; in the test with MIA PaCa-2 cell, 170 nM.
For `C=CC(=O)N1CCN(c2nc(OC[C@@H]3CCCN3C)nc3c2CCC2(C3)CN(C)Cc3ccccc32)C[C@@H]1CC#N` (stereo partly drawn) [Cpd. No. 30, 2-((2S)-1-acryloyl-4-(2-methyl-2′-(((S)-1-methylpyrrolidin-2-yl)methoxy)-2,3,5′,8′-tetrahydro-1H,6′H-spiro[isoquinoline-4,7′-quinazolin]-4′-yl)piperazin-2-yl)acetonitrile], in that order: 2060 nM and 4780 nM.
